Test results reported in patent publication US20200017467A1, “NOVEL TRIAZOLE DERIVATIVES” (BAYER CROPSCIENCE AKTIENGESELLSCHAFT, priority 2017, published 2020).
Values belong to the compound of their own block, whether it stands above or below them.

Key:
[1] = Log P by HPLC on reversed phase columns (EEC directive 79/831 Annex V.A8); type: physicochemical; conditions: method [a]: LC-UV, acidic range, 0.1% formic acid in water and acetonitrile; for chromatographic logP: reversed phase HPLC columns
Description: Log P values: Measurement of Log P values was performed according to EEC directive 79/831 Annex V.A8 by HPLC (High Performance Liquid Chromatography) on reversed phase columns with the following methods: • ^[a] Log P value is determined by measurement of LC-UV, in an acidic range, with 0.1% formic acid in water and acetonitrile as eluent (linear gradient from 10% acetonitrile to 95% acetonitrile). • ^[b] Log P value is determined by measurement of LC-UV, in a neutral range, with 0.001 molar ammonium acetate solution in water and acetonitrile as eluent (linear gradient from 10% acetonitrile to 95% acetonitrile). • ^[c] Log P value is determined by measurement of LC-UV, in an acidic range, with 0.1% phosphoric acid and acetonitrile as eluent (linear gradient from 10% acetonitrile to 95% acetonitrile). If more than one Log P value is available within the same method, all the values are given and separated by “+”. Calibration was done with straight-chain alkan2-ones (with 3 to 16 carbon atoms) with known Log P values (measurement of Log P values using retention times with linear interpolation between successive alkanones). Lambda-max-values were determined using UV-spectra from 200 nm to 400 nm and the peak values of the chromatographic signals.

Puccinia recondita = experiment: In vivo preventive test on Puccinia recondita (brown rust on wheat); conditions: 264 h, 500 ppm of active ingredient, preventive spray, evaluated 11 days after inoculation, read-out: efficacy
Description: (§1) Example A: In Vivo Preventive Test on Puccinia recondita (Brown Rust on Wheat) [table] The active ingredients were made soluble and homogenized in a mixture of dimethyl sulfoxide/acetone//Tween® 80 and then diluted in water to the desired concentration. Young plants of wheat were treated by spraying the active ingredient prepared as described above. Control plants were treated only with an aqueous solution of acetone/dimethyl sulfoxide/Tween® 80. After 24 hours, the plants were contaminated by spraying the leaves with an aqueous suspension of Puccinia recondita spores. The contaminated wheat plants were incubated for 24 hours at 20° C. and at 100% relative humidity and then for 10 days at 20° C. and at 70-80% relative humidity. The test was evaluated 11 days after the inoculation. 0% means an efficacy which corresponds to that of the control plants while an efficacy of 100% means that no disease was observed.

Septoria tritici = experiment: In vivo preventive test on Septoria tritici (leaf spot on wheat); conditions: Zymoseptoria tritici, 576 h, 500 ppm of active ingredient, preventive spray, evaluated 24 days after inoculation, read-out: efficacy
Description: Example B: In Vivo Preventive Test on Septoria tritici (Leaf Spot on Wheat) [table] The active ingredients were made soluble and homogenized in a mixture of dimethyl sulfoxide/acetone//Tween® 80 and then diluted in water to the desired concentration. Young plants of wheat were treated by spraying the active ingredient prepared as described above. Control plants were treated only with an aqueous solution of acetone/dimethyl sulfoxide/Tween® 80. After 24 hours, the plants were contaminated by spraying the leaves with an aqueous suspension of Septoria tritici spores. The contaminated wheat plants were incubated for 72 hours at 18° C. and at 100% relative humidity and then for 21 days at 20° C. and at 90% relative humidity. The test was evaluated 24 days after the inoculation. 0% means an efficacy which corresponds to that of the control plants while an efficacy of 100% means that no disease was observed.

Sphaerotheca fuliginea = experiment: In vivo preventive test on Sphaerotheca fuliginea (powdery mildew on cucurbits); conditions: Podosphaera fuliginea, 360 h; 500 ppm of active ingredient; gherkin, preventive spray, evaluated 15 days after inoculation; read-out: efficacy
Description: Example C: In Vivo Preventive Test on Sphaerotheca fuliginea (Powdery Mildew on Cucurbits) [table] The active ingredients were made soluble and homogenized in a mixture of dimethyl sulfoxide/acetone//Tween® 80 and then diluted in water to the desired concentration. Young plants of gherkin were treated by spraying the active ingredient prepared as described above. Control plants were treated only with an aqueous solution of acetone/dimethyl sulfoxide/Tween® 80. After 24 hours, the plants were contaminated by spraying the leaves with an aqueous suspension of Sphaerotheca fuliginea spores. The contaminated gherkin plants were incubated for 72 hours at 18° C. and at 100% relative humidity and then for 12 days at 20° C. and at 70-80% relative humidity. The test was evaluated 15 days after the inoculation. 0% means an efficacy which corresponds to that of the control plants while an efficacy of 100% means that no disease was observed.

Uromyces appendiculatus = experiment: In vivo preventive test on Uromyces appendiculatus (bean rust); conditions: 264 h, 500 ppm of active ingredient, preventive spray, evaluated 11 days after inoculation, read-out: efficacy
Description: as §1, with “D:” for “A:”, “Uromyces appendiculatus (Bean Rust)” for “Puccinia recondita (Brown Rust on Wheat)”, “bean” for “wheat”, “Uromyces appendiculatus” for “Puccinia recondita”

[2] = test system: Blumeria graminis fsp. hordei; experiment: In vivo preventive Blumeria test (barley); conditions: 168 h, 500 ppm of active ingredient, preventive spray, evaluated 7 days after inoculation, read-out: efficacy
Description: Example E: In Vivo Preventive Blumeria Test (Barlev) [table] To produce a suitable preparation of active compound, 1 part by weight of active compound or active compound combination was mixed with the stated amounts of solvent and emulsifier, and the concentrate was diluted with water to the desired concentration. To test for preventive activity, young plants were sprayed with the preparation of active compound or active compound combination at the stated rate of application. After the spray coating had been dried, the plants were dusted with spores of Blumeria graminis fsp. hordei. The plants were placed in the greenhouse at a temperature of approximately 18° C. and a relative atmospheric humidity of approximately 80% to promote the development of mildew pustules. The test was evaluated 7 days after the inoculation. 0% means an efficacy which corresponds to that of the untreated control, while an efficacy of 100% means that no disease is observed.

SMILES: CC(O)(Cn1cncn1)c1ccc(Oc2ccc(Cl)nc2)nc1Cl (stereo not drawn) [I-03]
- LogP ([1]; compounds of formula (I)): 2.04^[a]

SMILES: OC(Cn1cncn1)c1cnc(Oc2ccc(C(F)(F)F)nc2)cc1C(F)(F)F (stereo not drawn) [I-08]
- LogP ([1]; compounds of formula (I)): 2.35^[a]

SMILES: OC(Cn1cncn1)c1ccc(Oc2ccc(Cl)nc2)nc1C(F)(F)F (stereo not drawn) [I-10]
- LogP ([1]; compounds of formula (I)): 2.07^[a]

SMILES: OC(Cn1cncn1)c1ccc(Oc2ccc(Cl)nc2)nc1Cl (stereo not drawn) [I-11]
- LogP ([1]; compounds of formula (I)): 1.79^[a]

SMILES: OC(Cn1cncn1)c1ccc(Oc2ccc(Br)nc2)nc1C(F)(F)F (stereo not drawn) [I-12, 1-[6-[(6-bromo-3-pyridyl)oxy]-2-(trifluoromethyl)-3-pyridyl]-2-(1,2,4-triazol-1-yl)ethanol]
- chromatographic logP ([1]; compounds of formula (I)): 2.03
- pest or weed control at 500 ppm (Puccinia recondita): 80 to 89%
- pest or weed control at 500 ppm (Septoria tritici): 90 to 100%
- pest or weed control at 500 ppm (Sphaerotheca fuliginea): 90 to 100%
- pest or weed control at 500 ppm (Uromyces appendiculatus): 90 to 100%
- pest or weed control at 500 ppm [2]: 90 to 100%

SMILES: OC(Cn1cncn1)c1cnc(Oc2ccc(Cl)nc2)cc1C(F)(F)F (stereo not drawn) [I-14, 1-[6-[(6-chloro-3-pyridyl)oxy]-4-(trifluoromethyl)-3-pyridyl]-2-(1,24-triazol-1-yl)ethanol]
- chromatographic logP ([1]; compounds of formula (I)): 1.99
- pest or weed control at 500 ppm (Puccinia recondita): 90 to 100%
- pest or weed control at 500 ppm (Septoria tritici): 90 to 100%
- pest or weed control at 500 ppm (Sphaerotheca fuliginea): 90 to 100%
- pest or weed control at 500 ppm (Uromyces appendiculatus): 90 to 100%
- pest or weed control at 500 ppm [2]: 90 to 100%

SMILES: CC(=O)c1ccc(Oc2ccc(Br)nc2)nc1C(F)(F)F [V-01, 1-[6-[(6-bromo-3-pyridyl)oxy]-2-(trifluoromethyl)-3-pyridyl]ethanone]
- chromatographic logP ([1]; compounds of formula (V)): 3.12

SMILES: CC(=O)c1ccc(Oc2ccc(C(F)(F)F)nc2)nc1C(F)(F)F [V-02, 1-[2-(trifluoromethyl)-6-[[6-(trifluoromethyl)-3-pyridyl]oxy]-3-pyridyl]ethanone]
- chromatographic logP ([1]; compounds of formula (V)): 3.26

SMILES: CC(=O)c1ccc(Oc2ccc(Cl)nc2)nc1Cl [V-03]
- LogP ([1]; compounds of formula (V)): 2.66^[a]

SMILES: CC(=O)c1cnc(Oc2ccc(C(F)(F)F)nc2)cc1C(F)(F)F [V-04]
- LogP ([1]; compounds of formula (V)): 3.44^[a]

SMILES: CC(=O)c1ccc(Oc2ccc(Cl)nc2)nc1C(F)(F)F [V-05]
- LogP ([1]; compounds of formula (V)): 3.00^[a]

SMILES: CC(=O)c1cnc(Oc2ccc(Cl)nc2)cc1C(F)(F)F [V-06, 1-[6-[(6-chloro-3-pyridyl)oxy]-4-(trifluoromethyl)-3-pyridyl]ethanone]
- chromatographic logP ([1]; compounds of formula (V)): 3

SMILES: CC(=O)c1cnc(Oc2ccc(Br)nc2)cc1C(F)(F)F [V-07]
- LogP ([1]; compounds of formula (V)): 3.17^[a]

SMILES: CC(=O)c1ccc(Oc2ccc(F)nc2)nc1Cl [V-08]
- LogP ([1]; compounds of formula (V)): 2.39^[a]

SMILES: CC(=O)c1ccc(Oc2ccc(C)nc2)nc1Cl [V-09]
- LogP ([1]; compounds of formula (V)): 1.42^[a]

SMILES: CC(=O)c1cnc(Oc2ccc(Cl)nc2)cc1Cl [V-10]
- LogP ([1]; compounds of formula (V)): 2.59^[a]

SMILES: O=C(CCl)c1ccc(Oc2ccc(Br)nc2)nc1C(F)(F)F [VI-01, 1-[6-[(6-bromo-3-pyridyl)oxy]-2-(trifluoromethyl)-3-pyridyl]-2-chloro-ethanone]
- chromatographic logP ([1]; compounds of formula (VI)): 3.44

SMILES: O=C(CCl)c1ccc(Oc2ccc(C(F)(F)F)nc2)nc1C(F)(F)F [VI-02, 2-chloro-1-[2-(trifluoromethyl)-6-[[6-(trifluoromethyl)-3-pyridyl]oxy]-3-pyridyl]ethanone]
- chromatographic logP ([1]; compounds of formula (VI)): 3.6

SMILES: O=C(CCl)c1ccc(Oc2ccc(Cl)nc2)nc1Cl [VI-03]
- LogP ([1]; compounds of formula (VI)): 3.00^[a]

SMILES: O=C(CCl)c1cnc(Oc2ccc(C(F)(F)F)nc2)cc1C(F)(F)F [VI-04]
- LogP ([1]; compounds of formula (VI)): 3.64^[a]

SMILES: O=C(CCl)c1ccc(Oc2ccc(Cl)nc2)nc1C(F)(F)F [VI-05]
- LogP ([1]; compounds of formula (VI)): 3.27^[a]

The next lines start with results.

- chromatographic logP ([1]; compounds of formula (VII)): 2.23
SMILES: O=C(Cn1cncn1)c1ccc(Oc2ccc(Br)nc2)nc1C(F)(F)F [VII-01, 1-[6-[(6-bromo-3-pyridyl)oxy]-2-(trifluoromethyl)-3-pyridyl]-2-(1,2,4-triazol-1-yl)ethanone]
- pest or weed control at 500 ppm (Puccinia recondita): 80 to 89%
- pest or weed control at 500 ppm (Septoria tritici): 90 to 100%
- pest or weed control at 500 ppm (Sphaerotheca fuliginea): 90 to 100%
- pest or weed control at 500 ppm (Uromyces appendiculatus): 90 to 100%

- chromatographic logP ([1]; compounds of formula (VII)): 2.43
SMILES: O=C(Cn1cncn1)c1ccc(Oc2ccc(C(F)(F)F)nc2)nc1C(F)(F)F [VII-02, 2-(1,2,4-triazol-1-yl)-1-[2-(trifluoromethyl)-6-[[6-(trifluoromethyl)-3-pyridyl]oxy]-3-pyridyl]ethanone]
- pest or weed control at 500 ppm (Puccinia recondita): 80 to 89%
- pest or weed control at 500 ppm (Septoria tritici): 90 to 100%
- pest or weed control at 500 ppm (Sphaerotheca fuliginea): 90 to 100%
- pest or weed control at 500 ppm (Uromyces appendiculatus): 90 to 100%

- LogP ([1]; compounds of formula (VII)): 1.99^[a]
SMILES: O=C(Cn1cncn1)c1ccc(Oc2ccc(Cl)nc2)nc1Cl [VII-03]

- LogP ([1]; compounds of formula (VII)): 2.66^[a]
SMILES: O=C(Cn1cncn1)c1cnc(Oc2ccc(C(F)(F)F)nc2)cc1C(F)(F)F [VII-04]

- LogP ([1]; compounds of formula (VII)): 2.23^[a]
SMILES: O=C(Cn1cncn1)c1ccc(Oc2ccc(Cl)nc2)nc1C(F)(F)F [VII-05]

- chromatographic logP ([1]; compounds of formula (VII)): 2.21
SMILES: O=C(Cn1cncn1)c1cnc(Oc2ccc(Cl)nc2)cc1C(F)(F)F [VII-06, 1-[6-[(6-chloro-3-pyridyl)oxy]-4-(trifluoromethyl)-3-pyridyl]-2-(1,2,4-triazol-1-yl)ethanone]
- pest or weed control at 500 ppm (Septoria tritici): 80 to 89%
- pest or weed control at 500 ppm (Sphaerotheca fuliginea): 90 to 100%

- LogP ([1]; compounds of formula (VII)): 2.94^[a]
SMILES: O=C(Cn1cncn1)c1cnc(Oc2ccc(Br)nc2)cc1C(F)(F)F [VII-07]
